Earlier results on one substance are cited in patent US9873661B2, “Small molecule malarial Aldolase-TRAP enhancers and glideosome inhibitors” (NEW YORK UNIVERSITY, priority 2011, dated 2018).

This data set has as its target T1, plant plasma membrane H+-ATPase (PMA) and 14-3-3 (Nicotiana tabacum, UniProt P93343).
T1 sequence (P93343 1-260): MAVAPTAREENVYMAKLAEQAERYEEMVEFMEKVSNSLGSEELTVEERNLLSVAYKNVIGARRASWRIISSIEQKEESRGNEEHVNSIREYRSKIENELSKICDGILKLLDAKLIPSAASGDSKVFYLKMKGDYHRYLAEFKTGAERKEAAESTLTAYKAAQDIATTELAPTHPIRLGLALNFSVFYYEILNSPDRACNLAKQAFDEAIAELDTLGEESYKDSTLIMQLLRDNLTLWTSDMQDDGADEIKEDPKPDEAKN

fusioccin: the “increase of binding affinity between PMA and 14-3-3” value is reported as “approximately 90 fold”.
